Entries after “also recorded” stand apart in the source; their conditions may differ.
Assays:
[1] = system: tumor-reactive CD8^+ T cells; experiment: Flow cytometry of IFN-γ expression in CD8^+ T cells from tumor and draining lymph node, stimulation with MB49 cell lysates; type: in vivo, C57BL/6 mice
Source text: (§1) (FIG. 55A) In vivo depletion of tumor-infiltrating CD4^+CD25^+FoxP3^+ T cells by treatment of tumor-bearing mice with anti-CD4 antibody. C57BL/6 mice injected with 5×10^5 MB49 tumor cells s.c. were left untreated (control) or administered an anti-CD4 antibody (Clone GK1.5) i.p. at 5 d and 9 d following tumor challenge. CD4^+CD25^+FoxP3^+ T cells infiltrating tumors isolated from mice at d16 following tumor challenge were detected by flow cytometry. […] Flow cytometric analyses of peripheral blood mononuclear cells isolated from mice at d16 following tumor challenge determined the percentage of CD4^+ T cells or CD8^+ T cells among total mononuclear cells, and the percentage of CD4^+CD25^+FoxP3^+ T cells among total CD4^+ T cells. […] Tumor-reactive immune responses were determined by flow cytometric analyses of IFN-γ expression in CD8^+ T cells from the tumor and draining lymph node in response to in vitro stimulation with MB49 cell lysates. […] Tumor volume was monitored to determine the effect of depleting either CD4^+ T cells or CD8^+ T cells on the in vivo antitumor efficacy of doxorubicin. […]

MB49 tumors [2] = experiment: MB49 tumor volume, chemotherapy with or without anti-CD4 or anti-CD8 antibody; type: in vivo, C57BL/6 mice
Source text: as §1

[3] = system: mouse MB49 bladder cancer cells; experiment: Surface exposure of calreticulin (CRT), immunofluorescence cytometry; type: cell-based; conditions: 4 h
[4] = system: human SW780 bladder cancer cells; experiment: as above; type: cell-based; conditions: doxorubicin 10 μM, 4 h
MB49 tumor cells = experiment: Priming of tumor-reactive immune responses: IFN-γ production by draining lymph node (DLN) cells on in vitro re-challenge; type: in vivo, C57BL/6 mice; conditions: intratumoral doxorubicin 10 μg at d10 following tumor inoculation, established tumors
MB49 tumors [5] = experiment: Intratumoral doxorubicin in mice with pre-established MB49 tumors, tumor growth; type: in vivo, C57BL/6 mice
[6] = system: human NKG2D ligands (MICA/MICB); experiment: Flow cytometry of cell surface MICA/B on HCT116 cells; type: cell-based; conditions: irinotecan 25 μg/ml, 16 h
[7] = system: mouse NKG2D ligands (Rae-1); experiment: Quantitative real-time PCR of Rae1 transcripts in CT26 cells; type: cell-based; conditions: irinotecan 25 μg/ml or oxaliplatin 10 μg/ml
CT26 tumors = experiment: CT26 tumor volume, irinotecan with or without NKG2D blocking, anti-CD4 and/or anti-CD8 antibody; type: in vivo, Balb/C mice; conditions: irinotecan alone

With `N.N.[Cl][Pt][Cl]` [cisplatin] the “IFN-γ expression in CD8^+ T cells” value ([1]; cisplatin alone, 0.5 mg/kg i.p. weekly×4 from d7) was “unable to induce a corresponding elevation of IFN-γ expression”, the “growth of MB49 tumors” value (MB49 tumors [2]; cisplatin alone, 0.5 mg/kg i.p. weekly×4) was “partially inhibited tumor growth but failed to arrest tumor progression” and the “CRT exposure compared to doxorubicin” value ([3]; equitoxic doses) was “less effective in increasing CRT exposure”.
For `COc1cccc2c1C(=O)c1c(O)c3c(c(O)c1C2=O)C[C@@](O)(C(=O)CO)C[C@@H]3O[C@H]1C[C@H](N)[C@H](O)[C@H](C)O1` [doxorubicin], the “surface exposure of CRT” value [4] was “induced rapid surface exposure of CRT”, the “IFN-γ secretion by DLN cells on re-challenge with MB49 cell lysates” value (MB49 tumor cells) was “failed to induce a corresponding increase in IFN-γ secretion” and the tumor growth (MB49 tumors [5]; intratumoral doxorubicin 10 μg on d3 following tumor inoculation) was “able to arrest tumor growth”. For the same compound, the tumor growth (MB49 tumors [5]; intratumoral doxorubicin 10 μg on d10 following tumor inoculation) was “failed to inhibit the progressive growth”, the “IFN-γ^+CD8^+ T cells” value ([1]; doxorubicin alone, 5 mg/kg i.p. weekly×3 from d7, 5 mg/kg) was “IFN-γ^+CD8^+ T cells became evident; also recorded: tumor-reactive IFN-γ^+CD8^+ T cells were evident” and the “growth of MB49 tumors” value (MB49 tumors [2]; doxorubicin alone, 5 mg/kg i.p. weekly×3) was “inhibited the growth of MB49 tumors but failed to arrest tumor progression”. For the same compound, the “surface exposure of CRT” value ([3]; doxorubicin 10 μM) was “induced rapid surface exposure of CRT; also recorded: efficient translocation of CRT to the cell surface”.
`CCc1c2c(nc3ccc(OC(=O)N4CCC(N5CCCCC5)CC4)cc13)-c1cc3c(c(=O)n1C2)COC(=O)[C@]3(O)CC` [irinotecan] was tested, and the “cell surface expression of MICA, MICB” value ([6]; HCT116 cells) was “upregulated”, the “p53 dependence of upregulation of MICA/B” value ([6]; isogenic p53^+/+ and p53^−/− HCT116 cells) was “p53 is not required” and the “time after which Rae1 mRNA began to decline” value [7] was 48 h. The “growth of CT26 tumors” value (CT26 tumors; 50 mg/kg i.p. weekly×3 from d5) was “inhibited the growth of CT26 tumors” and the “growth of CT26 tumors” value (CT26 tumors; 50 mg/kg i.p. weekly×3 from d7) was “only slowed tumor growth”.
For `O=C1[O][Pt]2([NH][C@@H]3CCCC[C@H]3[NH]2)[O]C1=O` [oxaliplatin], the “time after which Rae1 mRNA began to decline” value [7] was 48 h.

Source: patent publication US12295968B2, “Compositions and methods for targeted immunomodulatory antibodies and fusion proteins” (The Johns Hopkins University, priority 2010, dated 2025)
